From publication PMC3227869 (Biochemistry, 2009)

Assays:
Assay type in all cases: biochemical
mouse PTPS (mPTPS) = biological target: T1, mouse PTPS (mPTPS) (Mus musculus, UniProt Q9R1Z7); experiment: HPLC of product, UV-visible spectra; settings: anaerobic; H2NTP generated in situ from GTP by FolE; control reaction
T1 sequence (Q9R1Z7 1-144): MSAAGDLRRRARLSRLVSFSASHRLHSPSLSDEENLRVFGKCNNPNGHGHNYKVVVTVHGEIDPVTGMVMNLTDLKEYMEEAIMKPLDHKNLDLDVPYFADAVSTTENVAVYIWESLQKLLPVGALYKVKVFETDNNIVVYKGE

E. coli GCH I (FolE) = E. coli GCH I (FolE) (Escherichia coli, UniProt P0A6T5); experiment: HPLC of product; settings: anaerobic
Chain of E. coli GCH I (FolE) (P0A6T5 2-222): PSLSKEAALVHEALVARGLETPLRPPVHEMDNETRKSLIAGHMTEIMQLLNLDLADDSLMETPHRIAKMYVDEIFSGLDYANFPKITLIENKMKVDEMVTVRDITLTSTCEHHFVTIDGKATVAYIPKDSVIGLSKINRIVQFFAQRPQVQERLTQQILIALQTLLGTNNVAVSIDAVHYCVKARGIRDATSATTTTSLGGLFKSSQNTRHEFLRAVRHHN

E. coli QueD = biological target: T2, E. coli QueD (Escherichia coli, UniProt P65870); experiment: HPLC of product, UV-visible spectra; settings: anaerobic (95% N2:5% H2)
T2 sequence (P65870 1-121): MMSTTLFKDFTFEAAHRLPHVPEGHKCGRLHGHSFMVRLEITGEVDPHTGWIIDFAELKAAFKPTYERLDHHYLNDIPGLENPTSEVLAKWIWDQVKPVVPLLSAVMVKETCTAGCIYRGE

## Nc1nc2c(c(=O)[nH]1)N=C([C@H](O)[C@H](O)COP(=O)(O)OP(=O)(O)OP(=O)(O)O)CN2 [H2NTP]
Mouse PTPS (mPTPS)
  HPLC of product, UV-visible spectra: H2NTP was quantitatively converted to PPH4

## Nc1nc2c(ncn2[C@@H]2O[C@H](COP(=O)(O)OP(=O)(O)OP(=O)(O)O)[C@@H](O)[C@H]2O)c(=O)[nH]1 [GTP]
E. coli GCH I (FolE)
  HPLC of product: H2NTP could be produced quantitatively from GTP

## C[C@H](O)C(=O)C1=Nc2c(nc(N)[nH]c2=O)NC1 [sepiapterin]
E. coli QueD
  HPLC of product, UV-visible spectra: the same product forms when sepiapterin is the substrate for QueD
